Where “and” joins values, the source holds several entries; their conditions need not be identical. Equal values may be shown once. Read-outs that look alike come from different tables or passages of the source.
Tests used:
Assay in all cases: cell-based
hNav1.5 = hNav1.5 (Homo sapiens, UniProt Q14524); details: read-out: IC50 (μM) Nav1.5
hNav1.3 = hNav1.3 (Homo sapiens, UniProt Q9NY46); details: read-out: IC50 (μM) Nav1.3
hNav1.4 = hNav1.4 (Homo sapiens, UniProt P35499); format: cell-based; details: for IC50: read-out: IC50 (μM) Nav1.4; for Nav1.4/Nav1.7: ratio of IonWorks Quattro IC50 values
hNav1.7 = hNav1.7 (Homo sapiens, UniProt Q15858); details: for IC50: read-out: IC50 (μM) Nav1.7
Chain of hNav1.7 (Q15858 whole entry): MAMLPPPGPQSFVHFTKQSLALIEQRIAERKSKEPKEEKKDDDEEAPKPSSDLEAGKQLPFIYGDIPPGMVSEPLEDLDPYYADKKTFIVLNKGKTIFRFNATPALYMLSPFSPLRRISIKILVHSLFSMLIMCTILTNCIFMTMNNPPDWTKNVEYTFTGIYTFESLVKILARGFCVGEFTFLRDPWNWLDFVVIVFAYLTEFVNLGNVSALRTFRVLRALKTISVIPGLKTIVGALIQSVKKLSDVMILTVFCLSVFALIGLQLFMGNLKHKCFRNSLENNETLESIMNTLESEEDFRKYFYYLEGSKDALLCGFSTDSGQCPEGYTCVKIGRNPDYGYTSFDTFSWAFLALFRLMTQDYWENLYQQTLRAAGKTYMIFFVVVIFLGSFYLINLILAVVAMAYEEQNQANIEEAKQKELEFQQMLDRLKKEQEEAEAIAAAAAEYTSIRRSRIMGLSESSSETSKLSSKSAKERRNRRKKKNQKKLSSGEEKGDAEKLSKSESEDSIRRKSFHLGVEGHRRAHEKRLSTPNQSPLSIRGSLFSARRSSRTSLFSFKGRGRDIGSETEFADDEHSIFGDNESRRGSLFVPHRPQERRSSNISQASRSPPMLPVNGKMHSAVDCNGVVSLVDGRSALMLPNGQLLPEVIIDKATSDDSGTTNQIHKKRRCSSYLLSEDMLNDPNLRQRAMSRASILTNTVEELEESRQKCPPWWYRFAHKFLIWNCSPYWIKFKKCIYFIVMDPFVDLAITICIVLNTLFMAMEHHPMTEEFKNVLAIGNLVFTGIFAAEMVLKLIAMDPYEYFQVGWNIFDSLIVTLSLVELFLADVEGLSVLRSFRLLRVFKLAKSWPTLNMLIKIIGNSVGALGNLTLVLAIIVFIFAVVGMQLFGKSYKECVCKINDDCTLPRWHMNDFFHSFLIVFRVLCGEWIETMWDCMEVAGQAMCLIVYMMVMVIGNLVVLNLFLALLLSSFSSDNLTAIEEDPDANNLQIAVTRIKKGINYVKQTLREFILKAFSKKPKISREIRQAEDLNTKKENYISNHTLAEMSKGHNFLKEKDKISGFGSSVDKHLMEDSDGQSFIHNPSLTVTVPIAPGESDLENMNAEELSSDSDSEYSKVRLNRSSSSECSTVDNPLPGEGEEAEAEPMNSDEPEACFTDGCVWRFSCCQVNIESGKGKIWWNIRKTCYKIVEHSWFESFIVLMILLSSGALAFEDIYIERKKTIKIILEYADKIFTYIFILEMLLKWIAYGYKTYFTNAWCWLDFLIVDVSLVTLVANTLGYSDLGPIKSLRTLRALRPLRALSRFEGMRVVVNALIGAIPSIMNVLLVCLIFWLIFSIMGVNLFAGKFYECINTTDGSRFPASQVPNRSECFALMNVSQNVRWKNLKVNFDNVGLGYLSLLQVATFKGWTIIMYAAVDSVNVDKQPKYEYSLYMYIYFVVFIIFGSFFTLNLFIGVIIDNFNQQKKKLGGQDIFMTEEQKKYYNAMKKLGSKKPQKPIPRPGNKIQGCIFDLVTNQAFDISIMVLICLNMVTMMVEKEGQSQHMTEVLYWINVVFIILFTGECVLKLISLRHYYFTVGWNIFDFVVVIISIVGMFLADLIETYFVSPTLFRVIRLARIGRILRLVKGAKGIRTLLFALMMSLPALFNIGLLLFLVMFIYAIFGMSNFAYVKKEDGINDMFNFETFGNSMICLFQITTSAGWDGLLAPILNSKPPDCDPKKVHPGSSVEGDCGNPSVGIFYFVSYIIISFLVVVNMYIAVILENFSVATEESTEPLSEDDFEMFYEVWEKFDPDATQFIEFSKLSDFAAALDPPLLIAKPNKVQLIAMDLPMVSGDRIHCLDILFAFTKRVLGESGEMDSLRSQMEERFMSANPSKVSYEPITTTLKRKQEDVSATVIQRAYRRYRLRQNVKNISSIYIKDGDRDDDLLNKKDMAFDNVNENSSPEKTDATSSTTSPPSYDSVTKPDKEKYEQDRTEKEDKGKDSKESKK

Chain of hNav1.4 (P35499 whole entry): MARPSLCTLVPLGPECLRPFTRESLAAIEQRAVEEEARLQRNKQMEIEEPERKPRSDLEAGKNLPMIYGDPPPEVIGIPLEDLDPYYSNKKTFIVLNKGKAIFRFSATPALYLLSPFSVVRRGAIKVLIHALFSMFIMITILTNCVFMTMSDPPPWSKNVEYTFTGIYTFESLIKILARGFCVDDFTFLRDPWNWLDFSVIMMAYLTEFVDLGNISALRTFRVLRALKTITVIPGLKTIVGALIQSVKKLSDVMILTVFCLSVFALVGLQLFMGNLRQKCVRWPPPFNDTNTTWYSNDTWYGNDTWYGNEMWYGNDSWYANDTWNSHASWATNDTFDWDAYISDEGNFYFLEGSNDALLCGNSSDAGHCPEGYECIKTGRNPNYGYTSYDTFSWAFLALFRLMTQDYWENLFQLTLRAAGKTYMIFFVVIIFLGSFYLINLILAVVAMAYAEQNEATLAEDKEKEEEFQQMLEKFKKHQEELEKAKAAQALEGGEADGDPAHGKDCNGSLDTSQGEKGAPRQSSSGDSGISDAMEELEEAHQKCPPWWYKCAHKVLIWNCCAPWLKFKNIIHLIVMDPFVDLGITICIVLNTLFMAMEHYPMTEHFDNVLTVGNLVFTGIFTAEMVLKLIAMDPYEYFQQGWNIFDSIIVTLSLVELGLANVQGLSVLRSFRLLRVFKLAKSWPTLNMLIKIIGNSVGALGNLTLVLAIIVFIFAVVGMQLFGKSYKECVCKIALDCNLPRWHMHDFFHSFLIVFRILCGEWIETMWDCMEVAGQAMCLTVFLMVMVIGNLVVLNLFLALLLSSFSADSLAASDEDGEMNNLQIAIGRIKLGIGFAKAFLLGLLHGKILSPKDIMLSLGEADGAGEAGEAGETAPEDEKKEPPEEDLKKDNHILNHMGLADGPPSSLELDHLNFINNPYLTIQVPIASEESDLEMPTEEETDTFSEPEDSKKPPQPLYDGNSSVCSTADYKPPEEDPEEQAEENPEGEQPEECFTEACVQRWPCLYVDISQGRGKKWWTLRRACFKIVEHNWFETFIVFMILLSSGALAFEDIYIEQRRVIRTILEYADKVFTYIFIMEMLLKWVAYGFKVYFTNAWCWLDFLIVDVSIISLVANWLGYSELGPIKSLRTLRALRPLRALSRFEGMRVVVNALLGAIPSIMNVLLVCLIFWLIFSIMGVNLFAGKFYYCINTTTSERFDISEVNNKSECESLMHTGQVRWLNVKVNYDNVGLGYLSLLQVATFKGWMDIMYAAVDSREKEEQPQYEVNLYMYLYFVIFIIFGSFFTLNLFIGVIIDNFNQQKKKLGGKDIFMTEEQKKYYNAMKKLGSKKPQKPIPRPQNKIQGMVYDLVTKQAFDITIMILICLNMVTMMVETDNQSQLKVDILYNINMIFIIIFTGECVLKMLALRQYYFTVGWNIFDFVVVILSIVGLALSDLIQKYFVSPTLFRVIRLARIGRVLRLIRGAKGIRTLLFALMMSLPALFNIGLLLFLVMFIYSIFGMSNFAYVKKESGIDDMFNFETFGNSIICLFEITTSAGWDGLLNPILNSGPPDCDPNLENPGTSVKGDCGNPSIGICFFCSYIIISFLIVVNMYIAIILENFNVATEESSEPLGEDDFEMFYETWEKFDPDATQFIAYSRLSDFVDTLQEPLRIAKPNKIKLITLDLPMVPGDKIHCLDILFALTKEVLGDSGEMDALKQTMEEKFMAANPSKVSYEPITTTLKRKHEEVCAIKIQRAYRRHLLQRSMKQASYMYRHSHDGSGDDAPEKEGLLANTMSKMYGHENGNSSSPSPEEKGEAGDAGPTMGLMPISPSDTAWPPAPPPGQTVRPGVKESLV

| SMILES | IC50 (hNav1.5; IonWorks Quattro, Table 6) | IC50 (hNav1.3; IonWorks Quattro, Table 6) | IC50 (hNav1.4; IonWorks Quattro, Table 6) | Nav1.4/Nav1.7 (hNav1.4; Table 6) | IC50 (hNav1.7) | IC50 (hNav1.5) | IC50 (hNav1.3) | IC50 (hNav1.4) | Nav1.4/Nav1.7 (hNav1.7; ratio of IonWorks Quattro IC50 values, Nav1.4 over Nav1.7) | IC50 (hNav1.5; IonWorks Quattro, Table 9) | IC50 (hNav1.3; IonWorks Quattro, Table 9) | IC50 (hNav1.4; IonWorks Quattro, Table 9) | IC50 (hNav1.7; IonWorks Quattro, […]) |
| --- | --- | --- | --- | --- | --- | --- | --- | --- | --- | --- | --- | --- | --- |
| CC[C@H](C)[C@H](NC(=O)[C@@H](NC(=O)[C@H](CCCCN)NC(=O)[C@H](CCCNC(=N)N)NC(=O)[C@@H]1CSSC[C@@H]2NC(=O)[C@H](C)NC(=O)[C@H](CCCNC(=N)N)NC(=O)[C@H](CCCCN)NC(=O)[C@H](CO)NC(=O)[C@H](CC(=O)O)NC(=O)[C@@H]3CSSC[C@H](NC(=O)[C@H](CCCNC(=N)N)NC(=O)[C@H](CC(C)C)NC(=O)CNC(=O)[C@H](CCC(=O)O)NC(=O)[C@H](CSSC[C@H](NC(=O)[C@@H](N)CCCNC(=N)N)C(=O)N[C@@H](CCC(N)=O)C(=O)N[C@@H](CCCCN)C(=O)N[C@@H](Cc4c[nH]c5ccccc45)C(=O)N[C@@H](CCSC)C(=O)N[C@@H](Cc4c[nH]c5ccccc45)C(=O)N[C@@H]([C@@H](C)O)C(=O)N3)NC2=O)C(=O)N[C@@H](CCCCN)C(=O)N[C@@H](CC(C)C)C(=O)N[C@@H](Cc2c[nH]c3ccccc23)C(=O)N1)[C@@H](C)CC)C(N)=O [compound 90] | 1.8 µM | 0.04 µM | 0.12 µM | 24 | 0.005 µM | – | – | – | – | – | – | – | – |
| CC[C@H](C)[C@H](NC(=O)[C@@H](NC(=O)[C@H](CCCCN)NC(=O)[C@H](CCCNC(=N)N)NC(=O)[C@@H]1CSSC[C@@H]2NC(=O)[C@H](C)NC(=O)[C@H](CCCNC(=N)N)NC(=O)[C@H](CCCCN)NC(=O)[C@H](CO)NC(=O)[C@H](CC(=O)O)NC(=O)[C@@H]3CSSC[C@H](NC(=O)[C@H](CCCNC(=N)N)NC(=O)[C@H](CC(C)C)NC(=O)CNC(=O)[C@H](CCC(=O)O)NC(=O)[C@H](CSSC[C@H](NC(=O)[C@@H](N)Cc4cccc5ccccc45)C(=O)N[C@@H](CCC(N)=O)C(=O)N[C@@H](CCCCN)C(=O)N[C@@H](Cc4c[nH]c5ccccc45)C(=O)N[C@@H](CCSC)C(=O)N[C@@H](Cc4c[nH]c5ccccc45)C(=O)N[C@@H]([C@@H](C)O)C(=O)N3)NC2=O)C(=O)N[C@@H](CCCCN)C(=O)N[C@@H](CC(C)C)C(=O)N[C@@H](Cc2c[nH]c3ccccc23)C(=O)N1)[C@@H](C)CC)C(N)=O [compound 25] | 2.3 µM | 0.07 µM | 0.09 µM | 10 | 0.008 µM | – | – | – | – | – | – | – | – |
| CC[C@H](NC(=O)[C@H](CCCCN)NC(=O)[C@H](CCCNC(=N)N)NC(=O)[C@@H]1CSSC[C@@H]2NC(=O)[C@H](C)NC(=O)[C@H](CCCNC(=N)N)NC(=O)[C@H](CCCCN)NC(=O)[C@H](CO)NC(=O)[C@H](CC(=O)O)NC(=O)[C@@H]3CSSC[C@H](NC(=O)[C@H](CCC(=O)O)NC(=O)[C@H](CC(C)C)NC(=O)CNC(=O)[C@H](CCC(=O)O)NC(=O)[C@H](CSSC[C@H](NC(=O)[C@@H](N)Cc4ccc(O)cc4)C(=O)N[C@@H](CCC(N)=O)C(=O)N[C@@H](CCCCN)C(=O)N[C@@H](Cc4c[nH]c5ccccc45)C(=O)N[C@@H](CCSC)C(=O)N[C@@H](Cc4c[nH]c5ccccc45)C(=O)N[C@@H]([C@@H](C)O)C(=O)N3)NC2=O)C(=O)N[C@@H](CCCCN)C(=O)N[C@@H](CC(C)C)C(=O)N[C@@H](Cc2c[nH]c3ccccc23)C(=O)N1)C(=O)N[C@H](C(N)=O)[C@@H](C)CC [compound 130] | – | – | – | – | 0.17 µM and 0.21 µM | 8.2 µM and 11.1 µM | > 5 µM | > 5 µM | 29 and 24 | – | – | – | – |
| CC[C@H](C)[C@H](NC(=O)[C@@H](NC(=O)[C@H](CCCCN)NC(=O)[C@H](CCCNC(=N)N)NC(=O)[C@@H]1CSSC[C@@H]2NC(=O)[C@H](C)NC(=O)[C@H](CCCNC(=N)N)NC(=O)[C@H](CCCCN)NC(=O)[C@H](CO)NC(=O)[C@H](CC(=O)O)NC(=O)[C@@H]3CSSC[C@H](NC(=O)[C@H](CCCNC(=N)N)NC(=O)[C@H](CC(C)C)NC(=O)CNC(=O)[C@H](CCC(=O)O)NC(=O)[C@H](CSSC[C@H](NC(=O)[C@@H](N)Cc4ccc(O)cc4)C(=O)N[C@@H](CCC(N)=O)C(=O)N[C@@H](CCCCN)C(=O)N[C@@H](Cc4c[nH]c5ccccc45)C(=O)N[C@@H](CCSC)C(=O)N[C@@H](Cc4c[nH]c5ccccc45)C(=O)N[C@@H]([C@@H](C)O)C(=O)N3)NC2=O)C(=O)N[C@@H](CCCCN)C(=O)N[C@@H](CCCNC(=N)N)C(=O)N[C@@H](Cc2c[nH]c3ccccc23)C(=O)N1)[C@@H](C)CC)C(N)=O [compound 105] | 2.8 µM | 0.15 µM | 0.21 µM | 1 | 0.15 µM | – | – | – | – | – | – | – | – |
| CC[C@H](C)[C@H](NC(=O)[C@@H](NC(=O)[C@H](CCCCN)NC(=O)[C@H](CCCNC(=N)N)NC(=O)[C@@H]1CSSC[C@@H]2NC(=O)[C@H](C)NC(=O)[C@H](CCCNC(=N)N)NC(=O)[C@H](CCCCN)NC(=O)[C@H](CO)NC(=O)[C@H](CC(=O)O)NC(=O)[C@@H]3CSSC[C@H](NC(=O)[C@H](CCCNC(=N)N)NC(=O)[C@H](CC(C)C)NC(=O)CNC(=O)[C@H](CCCCN)NC(=O)[C@H](CSSC[C@H](NC(=O)[C@@H](N)Cc4ccc(O)cc4)C(=O)N[C@@H](CCC(N)=O)C(=O)N[C@@H](CCCCN)C(=O)N[C@@H](Cc4c[nH]c5ccccc45)C(=O)N[C@@H](CCSC)C(=O)N[C@@H](Cc4c[nH]c5ccccc45)C(=O)N[C@@H]([C@@H](C)O)C(=O)N3)NC2=O)C(=O)N[C@@H](CCCCN)C(=O)N[C@@H](CC(C)C)C(=O)N[C@@H](Cc2c[nH]c3ccccc23)C(=O)N1)[C@@H](C)CC)C(N)=O [compound 81] | 0.89 µM | 0.03 µM | 0.05 µM | 5 | 0.01 µM | – | – | – | – | – | – | – | – |
| CCCC[C@@H]1NC(=O)[C@H](Cc2c[nH]c3ccccc23)NC(=O)[C@H](CCCCN)NC(=O)[C@H](CCC(N)=O)NC(=O)[C@@H](NC(=O)[C@@H](N)Cc2ccc(O)cc2)CSSC[C@@H]2NC(=O)[C@@H]3CSSC[C@@H](C(=O)N[C@@H](CCCNC(=N)N)C(=O)N[C@@H](CCCCN)C(=O)N[C@H](C(=O)N[C@H](C(N)=O)[C@@H](C)CC)[C@@H](C)CC)NC(=O)[C@H](Cc4c[nH]c5ccccc45)NC(=O)[C@H](CC(C)C)NC(=O)[C@H](Cc4cn(CCCOCCOCCOCCOCCOCCOCCOCCOCCOCCOCCN)nn4)NC(=O)[C@H](CSSC[C@H](NC(=O)[C@H]([C@@H](C)O)NC(=O)[C@H](Cc4c[nH]c5ccccc45)NC1=O)C(=O)N[C@@H](CC(=O)O)C(=O)N[C@@H](CO)C(=O)N[C@@H](CCCCN)C(=O)N[C@@H](CCCNC(=N)N)C(=O)N[C@@H](C)C(=O)N3)NC(=O)[C@H](CCCNC(=N)N)NC(=O)[C@H](CC(C)C)NC(=O)CNC(=O)[C@H](CCC(=O)O)NC2=O [compound 264] | – | – | – | – | – | – | – | – | – | > 7 µM | > 7 µM | > 7 µM | > 7 µM |
| CC[C@H](C)[C@H](NC(=O)[C@@H](NC(=O)[C@H](CCCCN)NC(=O)[C@H](CCCNC(=N)N)NC(=O)[C@@H]1CSSC[C@@H]2NC(=O)[C@H](C)NC(=O)[C@H](CCCNC(=N)N)NC(=O)[C@H](C)NC(=O)[C@H](CO)NC(=O)[C@H](CC(=O)O)NC(=O)[C@@H]3CSSC[C@H](NC(=O)[C@H](CCCNC(=N)N)NC(=O)[C@H](CC(C)C)NC(=O)CNC(=O)[C@H](CCC(=O)O)NC(=O)[C@H](CSSC[C@H](NC(=O)[C@@H](N)Cc4ccc(O)cc4)C(=O)N[C@@H](CCC(N)=O)C(=O)N[C@@H](CCCCN)C(=O)N[C@@H](Cc4c[nH]c5ccccc45)C(=O)N[C@@H](CCSC)C(=O)N[C@@H](Cc4c[nH]c5ccccc45)C(=O)N[C@@H]([C@@H](C)O)C(=O)N3)NC2=O)C(=O)N[C@@H](CCCCN)C(=O)N[C@@H](CC(C)C)C(=O)N[C@@H](Cc2c[nH]c3ccccc23)C(=O)N1)[C@@H](C)CC)C(N)=O [compound 12] | > 5 µM | 0.15 µM | 0.26 µM | 12 | 0.022 µM | – | – | – | – | – | – | – | – |
| CC[C@H](C)[C@H](NC(=O)[C@H](C)NC(=O)[C@H](CCCCN)NC(=O)[C@H](CCCNC(=N)N)NC(=O)[C@@H]1CSSC[C@@H]2NC(=O)[C@H](C)NC(=O)[C@H](CCCNC(=N)N)NC(=O)[C@H](CCCCN)NC(=O)[C@H](CO)NC(=O)[C@H](CC(=O)O)NC(=O)[C@@H]3CSSC[C@H](NC(=O)[C@H](CCCNC(=N)N)NC(=O)[C@H](CC(C)C)NC(=O)CNC(=O)[C@H](CCC(=O)O)NC(=O)[C@H](CSSC[C@H](NC(=O)[C@@H](N)Cc4ccc(O)cc4)C(=O)N[C@@H](CCC(N)=O)C(=O)N[C@@H](CCCCN)C(=O)N[C@@H](Cc4c[nH]c5ccccc45)C(=O)N[C@@H](CCSC)C(=O)N[C@@H](Cc4c[nH]c5ccccc45)C(=O)N[C@@H]([C@@H](C)O)C(=O)N3)NC2=O)C(=O)N[C@@H](CCCCN)C(=O)N[C@@H](CC(C)C)C(=O)N[C@@H](Cc2c[nH]c3ccccc23)C(=O)N1)C(N)=O [compound 23] | > 5 µM | 0.25 µM | 0.29 µM | 10 | 0.03 µM | – | – | – | – | – | – | – | – |
| CC[C@H](C)[C@H](NC(=O)[C@@H](NC(=O)[C@H](CCCCN)NC(=O)[C@H](CCCNC(=N)N)NC(=O)[C@@H]1CSSC[C@@H]2NC(=O)[C@H](C)NC(=O)[C@H](CCCNC(=N)N)NC(=O)[C@H](CCCCN)NC(=O)[C@H](CO)NC(=O)[C@H](CC(=O)O)NC(=O)[C@@H]3CSSC[C@H](NC(=O)[C@H](CCCNC(=N)N)NC(=O)[C@H](CC(C)C)NC(=O)CNC(=O)[C@H](CCC(=O)O)NC(=O)[C@H](CSSC[C@H](NC(=O)[C@@H](N)Cc4ccc(O)cc4)C(=O)N[C@@H](CCC(N)=O)C(=O)N[C@@H](CCCCN)C(=O)N[C@@H](Cc4c[nH]c5ccccc45)C(=O)N[C@@H](CCSC)C(=O)N[C@@H](Cc4c[nH]c5ccccc45)C(=O)N[C@@H](CCCCN)C(=O)N3)NC2=O)C(=O)N[C@@H](CCCCN)C(=O)N[C@@H](CC(C)C)C(=O)N[C@@H](Cc2c[nH]c3ccccc23)C(=O)N1)[C@@H](C)CC)C(N)=O [compound 76] | 3.7 µM | 0.1 µM | 0.1 µM | 3 | 0.031 µM | – | – | – | – | – | – | – | – |

Source: patent US10344060B2 (priority 2013, dated 2019)
